Where two headings read alike, the source gives them in different places. Numbered stars: 1 amine (or outer) side, 2 acyl side, 3 side chain; on linkers, the order of the positions; unused ones are H or OH. Side chains are listed from the residue outwards. Peptide text beside a SMILES is read from it. * marks the point of attachment. C18 diacid = O=C(O)CCCCCCCCCCCCCCCCC(=O)*; γGlu = O=C(O)[C@H](CCC(=O)[*:2])N[*:1]; AEEA = NCCOCCOCC(=O)O

The half-life is the time needed for the level to fall by half in the phase considered.

For series [1] the following is noted: human, in vivo; cited from earlier work.
The nature of series [2]: Assay (X) determination of effect on body weight in mice on high fat diet. It counts as in vivo, C57B16J mice. The following applies: male C57 DIO mice, s.c., 0.3 μmol/kg once daily; FIG. 1. The text has this:
Additional assays useful to the invention comprise those that can determine the effect of PP peptides on body weight and/or body composition. An exemplary assay is the following which involves utilization of a diet induced obese male […] mouse model for metabolic disease: […] (Taconic, Denmark) on regular diurnal rhythm and with access to a high fat diet (D12492, Research Diet, USA) are used. The mice are weighed on a weekly basis. Mice are received at age 5 weeks and put on high fat diet and housed at 24 degree Celsius in normal daily rhythm. Mice are group housed 10 per cage during an obesity induction period of 14 weeks. Two weeks before study start mice are single housed (two mice per cage with a dividing wall between). […] Body weight for all mice is recorded daily in combination with dosing. […] Data are analysed in Graph Pad Prism. Change of body weight from baseline in male C57 DIO mice (mean±SEM, n=10) after s.c. administration of compound AF (0.03 μmol/kg once daily or 0.1 μmol/kg every other day) or the reference compound human PP(2-36) (0.3 μmol/kg, once daily) was determined using Assay (X). […] Change of body weight (mean±SEM, n=10-12) and change of body weight from baseline (mean±SEM, n=10) in male […] mice on a high fat diet after administration of vehicle, compound BN (1 μmol/kg/day, s.c.) or reference compound 1 (500 nmol/kg/day, pump) was determined using Assay (X).

For series [3] the following is noted: minipig, in vivo; cited from earlier work.
The nature of series [4]: Assay (II) PK i.v. minipig, in vivo half-life. Further details: species or system Göttingen mini-pigs. Conditions: male, Göttingen, minipig, iv, Half-life minipig, Assay (II). The gist of the method:
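Plasma levels after a single 6 nmol/kg intravenous dose in five male Göttingen mini-pigs were measured by TFC/LC/MS/MS against spiked-plasma calibration, sampling to 240 h. Vehicle: 50 mM K2HPO4, 0.05% tween 80, pH 8.0. Individual profiles analysed non-compartmentally for half-life.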

On to `CC[C@H](C)[C@H](NC(=O)[C@H](Cc1ccc(O)cc1)NC(=O)[C@H](CCCNC(=N)N)NC(=O)[C@H](CCCNC(=N)N)NC(=O)[C@H](CC(C)C)NC(=O)[C@H](CC(=O)O)NC(=O)[C@H](C)NC(=O)[C@H](C)NC(=O)[C@H](Cc1ccc(O)cc1)NC(=O)[C@H](CCC(N)=O)NC(=O)[C@H](C)NC(=O)[C@H](CCSC)NC(=O)[C@H](CCC(N)=O)NC(=O)[C@H](CCC(=O)O)NC(=O)[C@@H]1CCCN1C(=O)[C@@H](NC(=O)[C@H](C)NC(=O)[C@H](CC(N)=O)NC(=O)[C@H](CC(=O)O)NC(=O)CNC(=O)[C@@H]1CCCN1C(=O)[C@H](Cc1ccc(O)cc1)NC(=O)[C@@H](NC(=O)[C@@H]1CCCN1C(=O)[C@H](CCC(=O)O)NC(=O)[C@H](CC(C)C)NC(=O)[C@@H]1CCCN1C(=O)[C@H](C)N)C(C)C)[C@@H](C)O)C(=O)N[C@@H](CC(N)=O)C(=O)N[C@@H](CCSC)C(=O)N[C@@H](CC(C)C)C(=O)N[C@H](C(=O)N[C@@H](CCCNC(=N)N)C(=O)N1CCC[C@H]1C(=O)N[C@@H](CCCNC(=N)N)C(=O)N[C@@H](Cc1ccc(O)cc1)C(N)=O)[C@@H](C)O` [PP], for which the half-life result in series [1] is reported as “approximately 10 minutes”.
For the compound `CC[C@H](C)[C@H](NC(=O)[C@H](Cc1ccc(O)cc1)NC(=O)[C@H](CCCNC(=N)N)NC(=O)[C@H](CCCNC(=N)N)NC(=O)[C@H](CC(C)C)NC(=O)[C@H](CC(=O)O)NC(=O)[C@H](C)NC(=O)[C@H](C)NC(=O)[C@H](Cc1ccc(O)cc1)NC(=O)[C@H](CCC(N)=O)NC(=O)[C@H](C)NC(=O)[C@H](CCSC)NC(=O)[C@H](CCC(N)=O)NC(=O)[C@H](CCC(=O)O)NC(=O)[C@@H]1CCCN1C(=O)[C@@H](NC(=O)[C@H](C)NC(=O)[C@H](CC(N)=O)NC(=O)[C@H](CC(=O)O)NC(=O)CNC(=O)[C@@H]1CCCN1C(=O)[C@H](Cc1ccc(O)cc1)NC(=O)[C@@H](NC(=O)[C@@H]1CCCN1C(=O)[C@H](CCC(=O)O)NC(=O)[C@H](CC(C)C)NC(=O)[C@@H]1CCCN1C(=O)[C@H](C)N)C(C)C)[C@@H](C)O)C(=O)N[C@@H](CC(N)=O)C(=O)N[C@@H](CCSC)C(=O)N[C@@H](CC(C)C)C(=O)N[C@H](C(=O)N[C@@H](CCCNC(=N)N)C(=O)N1CCC[C@H]1C(=O)N[C@@H](CCCNC(=N)N)C(=O)N[C@@H](Cc1ccc(O)cc1)C(N)=O)[C@@H](C)O` [PP(2-36)], in series [2], the “Change of body weight from baseline” value is “reduction in body weight”.
Regarding `CC[C@H](C)[C@H](NC(=O)[C@H](Cc1ccc(O)cc1)NC(=O)[C@H](CCCNC(=N)N)NC(=O)[C@H](CCCNC(=N)N)NC(=O)[C@H](CC(C)C)NC(=O)[C@H](CC(=O)O)NC(=O)[C@H](C)NC(=O)[C@H](C)NC(=O)[C@H](Cc1ccc(O)cc1)NC(=O)[C@H](CCC(N)=O)NC(=O)[C@H](C)NC(=O)[C@H](CCSC)NC(=O)[C@H](CCC(N)=O)NC(=O)[C@H](CCC(=O)O)NC(=O)[C@@H]1CCCN1C(=O)[C@@H](NC(=O)[C@H](C)NC(=O)[C@H](CC(N)=O)NC(=O)[C@H](CC(=O)O)NC(=O)CNC(=O)[C@@H]1CCCN1C(=O)[C@H](Cc1ccc(O)cc1)NC(=O)[C@@H](NC(=O)[C@@H]1CCCN1C(=O)[C@H](CCC(=O)O)NC(=O)[C@H](CC(C)C)NC(=O)[C@@H]1CCCN1C(=O)[C@H](C)N)C(C)C)[C@@H](C)O)C(=O)N[C@@H](CC(N)=O)C(=O)N[C@@H](CCSC)C(=O)N[C@@H](CC(C)C)C(=O)N[C@H](C(=O)N[C@@H](CCCNC(=N)N)C(=O)N1CCC[C@H]1C(=O)N[C@@H](CCCNC(=N)N)C(=O)N[C@@H](Cc1ccc(O)cc1)C(N)=O)[C@@H](C)O` [PP(3-36)], in series [3], the half-life entry is recorded as “less than 30 minutes”.
For the compound `CC[C@H](C)[C@H](NC(=O)[C@H](Cc1ccc(O)cc1)NC(=O)[C@H](CCCNC(=N)N)NC(=O)[C@H](CCCNC(=N)N)NC(=O)[C@H](CC(C)C)NC(=O)[C@H](CC(=O)O)NC(=O)[C@H](C)NC(=O)[C@H](C)NC(=O)[C@H](Cc1ccc(O)cc1)NC(=O)[C@H](CCC(N)=O)NC(=O)[C@H](C)NC(=O)[C@H](CCCCNC(=O)COCCOCCNC(=O)COCCOCCNC(=O)CC[C@H](NC(=O)CCCCCCCCCCCCCCCCC(=O)O)C(=O)O)NC(=O)[C@H](CCC(N)=O)NC(=O)[C@H](CCC(=O)O)NC(=O)[C@@H]1CCCN1C(=O)[C@@H](NC(=O)[C@H](C)NC(=O)[C@H](CC(N)=O)NC(=O)[C@H](CC(=O)O)NC(=O)CNC(=O)[C@@H]1CCCN1C(=O)[C@H](Cc1ccc(O)cc1)NC(=O)[C@@H](NC(=O)[C@@H]1CCCN1C(=O)[C@H](CCC(=O)O)NC(=O)[C@@H](N)CC(C)C)C(C)C)[C@@H](C)O)C(=O)N[C@@H](CC(N)=O)C(=O)N[C@@H](CCSC)C(=O)N[C@@H](CC(C)C)C(=O)N[C@H](C(=O)N[C@@H](CCCNC(=N)N)C(=O)N1CCC[C@H]1C(=O)N[C@@H](CCCNC(=N)N)C(=O)N[C@@H](Cc1ccc(O)cc1)C(N)=O)[C@@H](C)O` [Compound AY] (H-LEPVYPGDNATPEQK([AEEA-AEEA-γGlu-C18 diacid])AQYAADLRRYINMLTRPRY-NH2; N-terminus and C-terminus assumed), the half-life in series [4] is 25 h.
